In PMC3700072, “Synthesis, Anti-Inflammatory, and Ulcerogenicity Studies of Novel Substituted and Fused Pyrazolo[3,4-d]pyrimidin-4-ones” (Scientia Pharmaceutica, 2013):
Several values for one entry are separate records, joined by “and”; a condition that tells them apart may be missing. Identical values can stand only once.

How the values were obtained:
[1] = system: gastric mucosa of rats; assay: gastric ulcerogenic effect (Meshali's method, ulcer index by Robert's method); format: in vivo, rat; parameters: key to Ulcer index: ulcer index = %incidence/10 + avg no. of ulcers + avg severity (0–4); conditions: for % ulceration in the population of test animals: oral 10 mg/kg; for Average No. of ulcer / % Incidence/10 / % Ulcerogenicity relative to indomethacin / Average severity / Ulcer index: oral 10 mg/kg on three days; for % Incidence/10: 5 animals per group; for % Ulcerogenicity relative to indomethacin: indomethacin = 100, 10 mg/kg; for Average severity: score 0 to 4; for Ulcer index: sum of the 3 figures
Protocol: The ulcer index was calculated according to Robert’s method.
Adult male albino rats weighing between 100 and 120 g were used. Animals were divided into groups of five animals each. Rats were fasted 20 h before drug administration. Water was given ad libitum. The control group received the vehicle (1% gum acacia) orally. Other groups received indomethacin or test compounds orally in a dose of 10 mg/kg body weight suspended in 1% gum acacia. Rats were fasted for 2 h, allowed to feed for 2 h, then fasted for another 20 h. Rats were given another two doses on the second and third days. On the fourth day, rats were sacrificed by diethyl ether; the stomach of each rat was removed, opened along the greater curvature, and rinsed with cold 0.9% saline. The stomach was stretched, by pins, on a corkboard and inspected with a 3x magnifying lens for any evidence of mucosal damage. The ulcer index was calculated according to Robert’s method. The number of mucosal damage (red spots) was counted and their severity (ulcerogenic severity) was graded from 0 to 4 according to the following score assignment:
The following figures were calculated: • –– % Incidence/10 = [number of rats showing ulcer of any grade divided by total number of rats in the group × 100]/10. • –– Average number of ulcers: number of ulcers in the group/total number of rats in the group. • –– Average severity: Σ [each ulcer multiplied by its score of severity]/number of ulcers in the group. • Ulcer index = the sum of the 3 figures. • Results are tabulated in Table 2.

[2] = system: carrageenan-induced rat paw edema; assay: carrageenan-induced rat paw edema test; format: in vivo; parameters: Mean increase in edema weight ± SEM: unit not given here; conditions: rats, 10 mg/kg intraperitoneally, 4 h after carrageenan; for inhibition in vivo at 10 mg/kg / change in vivo at 10 mg/kg: Rattus norvegicus, ip; for inhibition in vivo at 10 mg/kg: 4 h, read-out: %Inhibition of Paw edema from control group (edema reduction); for change in vivo at 10 mg/kg / Mean increase in edema weight ± SEM: N = 6; for change in vivo at 10 mg/kg: read-out: Mean % increase in edema weight ± SEM; for % Activity relative to indomethacine: indomethacin = 100
Protocol: The in vivo anti-inflammatory effects of the newly synthesized pyrazolopyrimidine derivatives were assessed by utilizing the functional model of carrageenan-induced rat paw edema using indomethacin as the reference drug. Mean changes and the percent increase in paw edema weight of animals pretreated with the tested compounds after 4 h from the induction of inflammation were measured, together with the percent inhibition of induced rat paw edema by the tested compounds. The anti-inflammatory activity (relative potency) of the tested compounds relative to that of indomethacin was also calculated (Table 1) (Fig. 2).
The in vivo carrageenan-induced rat paw edema model of inflammation was used to evaluate the anti-inflammatory properties of the newly synthesized compounds according to the previously reported Winter et al. method.
Adult male albino rats weighing 100–120 g (obtained from the animal house of the department of Physiology, Faculty of Medicine, Alexandria University) were used throughout the work. Animals were randomly divided into groups of six rats each. They were kept in an animal house under standard conditions of light and temperature with free access to food and water ad libitum and allowed to be accustomed to their environment for two days before testing.
Indomethacin, used as a reference standard (Khahira for Pharmaceutical and Chemical Industry, Cairo, Egypt), and the test compounds were dissolved in DMSO and were injected intraperitoneally at a dose level of 10 mg/kg body weight. Control animals, on the other hand, were intraperitoneally injected with appropriate volume of DMSO only. After one hour of the above treatment, an inflammatory edema in the right hind paw of all animals was induced by subcutaneous injection of 0.05 ml of freshly prepared solution of 1% carrageenan (λ-Carrageenan Sigma–Aldrich Corp. St. Louis, MO, USA) in sterile normal saline (0.9%), into the subplantar tissue of the paw. An equal volume of saline was injected to the left hind paw and served as internal control for the degree of inflammation in the right hind paw.
Four hours after carrageenan injection, animals were decapitated and both the right and left hind paws were excised at a standard point and weighed. The difference in weight from edema between right and left paws was taken as a measure of the degree of inflammation for each animal. The mean increase in weight of the carrageenan-injected paw over the other paw in each group was measured and the percent increase of edema was calculated. The anti-inflammatory efficacy of the tested compounds was assessed by comparing the change in paw weight in the treated animals with that in control animals (treated with DMSO only) and expressed as a percent inhibition of the edema (percent protection against inflammation), calculated according to the following equation: % Inhibition of edema=(1-Wt/Wc)×100 where Wt is the mean increase in paw weight in rats treated with the test compounds and Wc is the mean increase in paw weight in the control group. The anti-inflammatory activity of the test compounds relative to that of indomethacin was also determined (Table 2).
In the anti-inflammatory study, data obtained were expressed as the mean ± standard error (SEM). Statistical significance was determined by comparing the values of the test compounds and the standard with those obtained from the control group of animals using One-way ANOVA with Dunnett’s post-test using the GraphPad Prism version 3.00 for Windows (GraphPad Software, San Diego California USA, www.graphpad.com). The difference in results was considered significant if P < 0.001.

[3] = target: cyclooxygenase-2; parameters: method as in PMID 15044055; conditions: intact cell assays; cited from earlier work
[4] = target: cyclooxygenase-1; parameters: method as in PMID 15044055; conditions: intact cell assays; cited from earlier work

| melting point [°C] | Structure (SMILES) | % ulceration in the population of test animals [1] | Average No. of ulcer [1] | % Incidence/10 [1] | % Ulcerogenicity relative to indomethacin [1] | Average severity [1] | Ulcer index [1] | inhibition in vivo at 10 mg/kg [2] [%] | change in vivo at 10 mg/kg [2] [%] | Mean increase in edema weight ± SEM [2] | % Activity relative to indomethacine [2] [%] | IC50 [3] [nM] | IC50 [4] [nM] |
| --- | --- | --- | --- | --- | --- | --- | --- | --- | --- | --- | --- | --- | --- |
| 267 to 269 | Cc1nc2c(cnn2-c2ccccc2)c(=O)n1N=c1scc(-c2ccccc2)n1-c1ccc(Cl)cc1 [Compound 11d, 5-{[3-(4-Chlorophenyl)-4-phenyl-1,3-thiazol-2(3H)-ylidene]amino}-6-methyl-1-phenyl-1,5-dihydro-4H-pyrazolo[3,4-d]pyrimidin-4-one] | 80% | 1.0 | 8 | 59.09% | 1.20 | 10.20 | 56.7 | 8.73 ± 0.868 | 0.68 ± 0.065 | 83.18 |  |  |
| 258 to 260 | Cc1nc2c(cnn2-c2ccccc2)c(=O)n1N=c1scc(-c2ccccc2)n1-c1ccccc1 [Compound 11a, 5-[(3,4-Diphenyl-1,3-thiazol-2(3H)-ylidene)amino]-6-methyl-1-phenyl-1,5-dihydro-4H-pyrazolo[3,4-d]pyrimidin-4-one] | 40–60% | 1.6 | 6 | 52.02% | 1.38 | 8.98 | 53.5 | 10.5 ± 0.468 | 0.73 ± 0.021 | 78.50 |  |  |
|  | CN(C)c1nc(NCc2ccccc2)c2cnn(C(C)(C)C)c2n1 [II] |  |  |  |  |  |  |  |  |  |  | 0.9 | 59.6 |
| 261 to 263 | Cc1nc2c(cnn2-c2ccccc2)c(=O)n1N=c1scc(-c2ccc(Br)cc2)n1-c1ccc(Cl)cc1 [Compound 11e, 5-{[4-(4-Bromophenyl)-3-(4-chlorophenyl)-1,3-thiazol-2(3H)-ylidene]amino}-6-methyl-1-phenyl-1,5-dihydro-4H-pyrazolo[3,4-d]pyrimidin-4-one] | 20% | 0.8 | 2 | 26% and 26.36% | 1.75 | 4.55 | 66.9 | 8.74 ± 0.929 | 0.52 ± 0.031 | 98.14 |  |  |
| 272 to 275 | Cc1nc2c(cnn2-c2ccccc2)c(=O)n1N=c1scc(-c2ccc(Cl)cc2)n1-c1ccc(Cl)cc1 [Compound 11f, 5-{[3,4-Bis(4-chlorophenyl)-1,3-thiazol-2(3H)-ylidene]amino}-6-methyl-1-phenyl-1,5-dihydro-4H-pyrazolo[3,4-d]pyrimidin-4-one] | 40–60% | 1.6 | 4 | 41.13% | 1.5 | 7.10 | 65 | 9.29 ± 0.961 | 0.55 ± 0.043 | 95.33 |  |  |
| 258 to 259 | Cc1nc2c(cnn2-c2ccccc2)c(=O)n1N=c1scc(-c2ccc(Cl)cc2)n1-c1ccccc1 [Compound 11c, 5-{[4-(4-Chlorophenyl)-3-phenyl-1,3-thiazol-2(3H)-ylidene]amino}-6-methyl-1-phenyl-1,5-dihydro-4H-pyrazolo[3,4-d]pyrimidin-4-one] | 40–60% | 1.6 | 6 | 53.47% | 1.63 | 9.23 | 54.1 | 10.8 ± 0.457 | 0.72 ± 0.031 | 79.44 |  |  |
| 248 to 252 | Cc1nc2c(cnn2-c2ccccc2)c(=O)n1N=c1scc(-c2ccc(Br)cc2)n1-c1ccccc1 [Compound 11b, 5-{[4-(4-Bromophenyl)-3-phenyl-1,3-thiazol-2(3H)-ylidene]amino}-6-methyl-1-phenyl-1,5-dihydro-4H-pyrazolo[3,4-d]pyrimidin-4-one] | 80% | 1.2 | 8 |  | 1.33 | 10.53 | 57.3 | 8.42 ± 0.482 | 0.67 ± 0.049 | 84.11 |  |  |
| 155 to 156 | CCOC(=O)c1cc2nc3c(cnn3-c3ccccc3)c(=O)n2nc1N [Compound 14, Ethyl 7-amino-4-oxo-1-phenyl-1,4-dihydropyrazolo[3′,4′:4,5]pyrimido[1,2-b]-pyridazine-8-carboxylate] |  |  |  |  |  |  | 44.6 | 11.1 ± 1.14 | 0.87 ± 0.076 | 65.43 |  |  |
| 264 to 267 | Cc1nc2c(cnn2-c2ccccc2)c(=O)n1N=C1SCC(=O)N1c1ccc(Cl)cc1 [Compound 10b, 5-{[3-(4-Chlorophenyl)-4-oxo-1,3-thiazolidin-2-ylidene]amino}-6-methyl-1-phenyl-1,5-dihydro-4H-pyrazolo[3,4-d]pyrimidin-4-one] | 40–60% | 0.8 | 6 | 46.63% | 1.25 | 8.05 | 58.6 | 8.31 ± 0.43 | 0.65 ± 0.022 | 85.99 |  |  |
